In series [1] the test system is PANK2 silenced human neuroblastoma IMR32 cells (PANK2−/−). Kind of series: Coenzyme A assay in PANK2 silenced cells (LC-MS quantification of free CoA). The note with it: compound added twice (24 h + 24 h), relative to 0.1% DMSO controls. It counts as cell-based. In short, it runs like this:
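PANK2 shRNA-silenced IMR32 neuroblastoma cells were treated with compound (0.1% DMSO) for 24 h, then re-dosed with fresh compound for a further 24 h at 37 °C. TFA extracts of 1×10^6 cells were assayed for free CoA by LC-MS/MS (MRM 768.1→261.6/136.1). Results are given as fold change versus DMSO controls.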

Series [2] can be described thus: Stability in mouse plasma. It counts as in vitro ADME. The essentials:
(§1)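 Test compound at 3 μM (0.1% DMSO) was incubated in mouse or human plasma at 37 °C and sampled in duplicate at 0, 10, 20, 30, 40 and 60 min. Reactions were stopped with acetonitrile/formic acid containing internal standard. Remaining parent was measured by UPLC-MS/MS without a calibration curve.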

Series [3] in a line: Stability in human plasma. The settings on record: 37° C.; for t1/2, Human Plasma, Diastereoisomer B: 3 μM. The series is classed as in vitro ADME. In short, it runs like this: as §1
[4] abbreviates: human, plasma, Diastereoisomer A (upfield shift in 31P NMR), read-out: t1/2, Human Plasma, Diastereoisomer A (converted).
The mark [5] stands for this setting: human, plasma, Diastereoisomer B, read-out: t1/2, Human Plasma, Diastereoisomer B (converted).
[6] abbreviates: Diastereoisomer A (upfield shift in 31P NMR), 3 μM, 37° C., mouse plasma, read-out: t1/2, Mouse Plasma, Diastereoisomer A.
The mark [7] stands for this setting: Diastereoisomer B, 3 μM, 37° C., mouse plasma.
[8] abbreviates: Diastereoisomer A (upfield shift in 31P NMR), read-out: t1/2, Human Plasma, Diastereoisomer A (converted).

From patent US10364263B2, “Cyclic phosphates and cyclic phosphoramidates for the treatment of neurologic disorders” (Retrophin, Inc., priority 2015, dated 2019) come the findings set out here.

Structures are written as SMILES.

For `COC(=O)CCNC(=O)[C@@H]1OP(=O)(OCOC(=O)C(C)(C)C)OCC1(C)C` (stereo partly drawn) [Compound No. 65, (((4R)-4-((3-methoxy-3-oxopropyl)carbamoyl)-5,5-dimethyl-2-oxido-1,3,2-dioxaphosphinan-2-yl)oxy)methyl pivalate], in series [1], the “PANK2−/− CoA (Fold Increase): fold increase in Coenzyme A (CoA) levels relative to controls” value turned out to be 222.6 Fold Increase. Also, the half-life at 3 µM was less than 9.6 min in series [2] (mouse, plasma); more than 60 min in series [3] (setting [4]); less than 9.6 min in series [3] (setting [5]). In addition, in series [2] (mouse, plasma, 3 µM), the “t1/2, Mouse Plasma, Diastereoisomer B” value is less than 9.6 min.

On to `COC(=O)CCNC(=O)[C@@H]1OP(=O)(N[C@@H](C)C(=O)OCc2ccccc2)OCC1(C)C` (stereo partly drawn) [Compound No. 11, Benzyl ((4R)-4-((3-methoxy-3-oxopropyl)carbamoyl)-5,5-dimethyl-2-oxido-1,3,2-dioxaphosphinan-2-yl)-L-alaninate], for which the “PANK2−/− CoA (Fold Increase): fold increase in Coenzyme A (CoA) levels relative to controls” value in series [1] came out at 0.99 Fold Increase.

`COC(=O)CCNC(=O)[C@@H]1OP(=O)(OCCSC(=O)C(C)(C)C)OCC1(C)C` (stereo partly drawn) [Compound No. 2-133, Methyl 3-((4R)-5,5-dimethyl-2-oxido-2-(2-(pivaloylthio)ethoxy)-1,3,2-dioxaphosphinane-4-carboxamido)propanoate]: the “PANK2−/− CoA (Fold Increase): fold increase in Coenzyme A (CoA) levels relative to controls” value in series [1] turned out to be 89.53 Fold Increase.

Consider `COC(=O)CCNC(=O)[C@@H]1OP(=O)(N[C@@H](C)C(=O)OCCc2ccccc2)OCC1(C)C` (stereo partly drawn) [Compound No. 2, Methyl 3-((4R)-5,5-dimethyl-2-oxido-2-(((S)-1-oxo-1-phenethoxypropan-2-yl)amino)-1,3,2-dioxaphosphinane-4-carboxamido)propanoate], for which the “PANK2−/− CoA (Fold Increase): fold increase in Coenzyme A (CoA) levels relative to controls” value in series [1] is 6.80 Fold Increase. The half-life at 3 µM in series [2] (mouse, plasma) was less than 9.6 min; in series [3] (setting [4]), 57 min; in series [3] (setting [5]) it was 54 min. Moreover, in series [2] (mouse, plasma, 3 µM), the “t1/2, Mouse Plasma, Diastereoisomer B” value is less than 9.6 min.

In the case of `COC(=O)CCNC(=O)[C@@H]1OP(=O)(N[C@H](C)C(=O)OC)OCC1(C)C` (stereo partly drawn) [compound 16, methyl 3-((4R)-2-(((R)-1-methoxy-1-oxopropan-2-yl)amino)-5,5-dimethyl-2-oxido-1,3,2-dioxaphosphinane-4-carboxamido)propanoate], the “PANK2−/− CoA (Fold Increase): fold increase in Coenzyme A (CoA) levels relative to controls” value in series [1] was determined as 1.21 Fold Increase. The half-life at 3 µM was less than 9.6 min in series [2] (setting [6]) and more than 60 min in series [3] (setting [8]). In series [2] (setting [7]), the “t1/2, Mouse Plasma, Diastereoisomer B” value was less than 9.6 min. Also, in series [3] (Diastereoisomer B), the “t1/2, Human Plasma, Diastereoisomer B” value is more than 60 min.

Consider `COC(=O)CCNC(=O)[C@@H]1OP(=O)(OCOC(=O)c2ccccc2)OCC1(C)C` (stereo partly drawn) [Compound No. 64, (((4R)-4-((3-methoxy-3-oxopropyl)carbamoyl)-5,5-dimethyl-2-oxido-1,3,2-dioxaphosphinan-2-yl)oxy)methyl benzoate], for which the “PANK2−/− CoA (Fold Increase): fold increase in Coenzyme A (CoA) levels relative to controls” value in series [1] is recorded as 278.1 Fold Increase. Besides, the half-life at 3 µM in series [2] (mouse, plasma) was less than 9.6 min; in series [3] (setting [4]) it was less than 9.6 min; in series [3] (setting [5]), less than 9.6 min. The “t1/2, Mouse Plasma, Diastereoisomer B” value in series [2] (mouse, plasma, 3 µM) was less than 9.6 min.

In the case of `COC(=O)CCNC(=O)[C@@H]1OP(=O)(OCOC(=O)c2cncs2)OCC1(C)C` (stereo partly drawn) [Compound No. 70, (((4R)-4-((3-methoxy-3-oxopropyl)carbamoyl)-5,5-dimethyl-2-oxido-1,3,2-dioxaphosphinan-2-yl)oxy)methyl thiazole-5-carboxylate], the “PANK2−/− CoA (Fold Increase): fold increase in Coenzyme A (CoA) levels relative to controls” value in series [1] was 87.75 Fold Increase. Besides, the half-life at 3 µM in series [2] (mouse, plasma) was less than 9.6 min; in series [3] (setting [4]), less than 9.6 min; in series [3] (setting [5]), less than 9.6 min. In addition, the “t1/2, Mouse Plasma, Diastereoisomer B” value in series [2] (mouse, plasma, 3 µM) was less than 9.6 min.

`COC(=O)CCNC(=O)[C@@H]1OP(=O)(N[C@@H](C)C(=O)OC)OCC1(C)C` (stereo partly drawn) [compound 5, methyl 3-((4R)-2-(((S)-1-methoxy-1-oxopropan-2-yl)amino)-5,5-dimethyl-2-oxido-1,3,2-dioxaphosphinane-4-carboxamido)propanoate]: the “PANK2−/− CoA (Fold Increase): fold increase in Coenzyme A (CoA) levels relative to controls” value in series [1] is recorded as 1.15 Fold Increase. The half-life at 3 µM in series [2] (setting [6]) is less than 9.6 min; in series [3] (setting [8]), more than 60 min. For the same compound, the “t1/2, Mouse Plasma, Diastereoisomer B” value in series [2] (setting [7]) is less than 9.6 min. The “t1/2, Human Plasma, Diastereoisomer B” value in series [3] (Diastereoisomer B) was more than 60 min.

Consider `COC(=O)[C@H](C)NP1(=O)OCC(C)(C)[C@H](C(=O)NCCC(=O)OCc2ccncc2)O1` (stereo partly drawn) [compound 20, (2S)-methyl 2-(((4R)-5,5-dimethyl-2-oxido-4-((3-oxo-3-(pyridin-4-ylmethoxy)propyl)carbamoyl)-1,3,2-dioxaphosphinan-2-yl)amino)propanoate], for which the “PANK2−/− CoA (Fold Increase): fold increase in Coenzyme A (CoA) levels relative to controls” value in series [1] turned out to be 0.9 Fold Increase. Further, the half-life at 3 µM in series [2] (mouse, plasma) is less than 9.6 min; in series [3] (setting [4]), 44.4 min; in series [3] (setting [5]) it was more than 60 min. In addition, in series [2] (mouse, plasma, 3 µM), the “t1/2, Mouse Plasma, Diastereoisomer B” value was less than 9.6 min.

In the case of `COC(=O)CCNC(=O)[C@@H]1OP(=O)(N[C@@H](C)C(=O)OCc2cccnc2)OCC1(C)C` (stereo partly drawn) [compound 24, methyl 3-((4R)-5,5-dimethyl-2-oxido-2-(((S)-1-oxo-1-(pyridin-3-ylmethoxy)propan-2-yl)amino)-1,3,2-dioxaphosphinane-4-carboxamido)propanoate], in series [1], the “PANK2−/− CoA (Fold Increase): fold increase in Coenzyme A (CoA) levels relative to controls” value is given as 0.92 Fold Increase. Also, the half-life at 3 µM was less than 9.6 min in series [2] (mouse, plasma); 15.6 min in series [3] (setting [4]); 49.2 min in series [3] (setting [5]). In addition, the “t1/2, Mouse Plasma, Diastereoisomer B” value in series [2] (mouse, plasma, 3 µM) is less than 9.6 min.

`COC(=O)CCNC(=O)[C@@H]1OP(=O)(N[C@@H](C)C(=O)OCc2cc(C)cc(C)c2)OCC1(C)C` (stereo partly drawn) [compound 3, (2S)-3,5-dimethylbenzyl 2-(((4R)-4-((3-methoxy-3-oxopropyl)carbamoyl)-5,5-dimethyl-2-oxido-1,3,2-dioxaphosphinan-2-yl)amino)propanoate]: the “PANK2−/− CoA (Fold Increase): fold increase in Coenzyme A (CoA) levels relative to controls” value in series [1] is 1.65 Fold Increase. Also, the half-life at 3 µM in series [2] (mouse, plasma) is less than 9.6 min; in series [3] (setting [4]), more than 60 min; in series [3] (setting [5]), more than 60 min. Besides, the “t1/2, Mouse Plasma, Diastereoisomer B” value in series [2] (mouse, plasma, 3 µM) was less than 9.6 min.

Turning to `CC(C)(C)C(=O)OCO[P@@]1(=O)OCC(C)(C)[C@H](C(=O)NCCC(=O)O)O1` [Compound No. 91, 3-((2S,4R)-5,5-dimethyl-2-oxido-2-((pivaloyloxy)methoxy)-1,3,2-dioxaphosphinane-4-carboxamido)propanoic acid], in series [1], the “PANK2−/− CoA (Fold Increase): fold increase in Coenzyme A (CoA) levels relative to controls” value was 4.03 Fold Increase. Further, the half-life at 3 µM was 30.6 min in series [2] (mouse, plasma) and more than 60 min in series [3] (setting [4]).

Turning to `CC1(C)COP(=O)(O)O[C@H]1C(=O)NCCC(=O)O` [compound 108, 3-((4R)-2-hydroxy-5,5-dimethyl-2-oxido-1,3,2-dioxaphosphinane-4-carboxamido)propanoic acid], in series [1], the “PANK2−/− CoA (Fold Increase): fold increase in Coenzyme A (CoA) levels relative to controls” value was 1.07 Fold Increase. The half-life at 3 µM in series [3] (setting [4]) was 49.8 min.

Regarding `COC(=O)CCNC(=O)[C@@H]1OP(=O)(N[C@@H](Cc2ccccc2)C(=O)OCc2ccccc2)OCC1(C)C` (stereo partly drawn) [compound 10, benzyl ((4R)-4-((3-methoxy-3-oxopropyl)carbamoyl)-5,5-dimethyl-2-oxido-1,3,2-dioxaphosphinan-2-yl)-L-phenylalaninate], in series [1], the “PANK2−/− CoA (Fold Increase): fold increase in Coenzyme A (CoA) levels relative to controls” value is listed as 1.05 Fold Increase.
